Test results as given in the NIST ThermoML archive (doi:10.1021/je0201119).
± gives the expanded uncertainty stated by the source.

Tests used:
[1] = xn = mol fraction of the nth substance listed; conditions: 92 kPa, Liquid, x2 = 0; for mass density: Vibrating tube method
[2] = 92 kPa, Liquid; for mass density: Vibrating tube method

viscosity ([1]; 298.15 K) | viscosity ([1]; 303.15 K) | viscosity ([1]; 313.15 K) | mass density ([1]; 323.15 K) | viscosity ([1]; 323.15 K) | mass density ([1]; 333.15 K) | viscosity ([1]; 333.15 K) | mass density ([1]; 343.15 K) | viscosity ([1]; 343.15 K) | viscosity ([2]; 313.15 K) | mass density ([2]; 313.15 K) | viscosity ([2]; 323.15 K) | mass density ([2]; 323.15 K) | viscosity ([2]; 333.15 K) | mass density ([2]; 333.15 K) | viscosity ([2]; 343.15 K) | mass density ([2]; 343.15 K) | viscosity ([2]; 298.15 K) | viscosity ([2]; 303.15 K) | Structure (SMILES)
0.89 ± 0.089 mPa·s | 0.805 ± 0.082 mPa·s | 0.653 ± 0.069 mPa·s | 988.04 ± 0.06 kg/m3 | 0.547 ± 0.06 mPa·s | 983.12 ± 0.06 kg/m3 | 0.466 ± 0.053 mPa·s | 977.77 ± 0.06 kg/m3 | 0.405 ± 0.047 mPa·s | – | – | – | – | – | – | – | – | – | – | O [water] + CC(C)(N)CO
– | – | – | – | – | – | – | – | – | 47.8 ± 3.2 mPa·s | 919.65 ± 1.4 kg/m3 | 25.1 ± 1.7 mPa·s | 911.24 ± 1.4 kg/m3 | 14.4 ± 1 mPa·s | 902.87 ± 1.4 kg/m3 | 8.91 ± 0.69 mPa·s | 894.28 ± 1.4 kg/m3 | – | – | CC(C)(N)CO [2-amino-2-methylpropan-1-ol]
– | – | – | – | – | – | – | – | – | 0.653 ± 0.069 mPa·s | – | 0.547 ± 0.06 mPa·s | 988.04 ± 0.06 kg/m3 | 0.466 ± 0.053 mPa·s | 983.12 ± 0.06 kg/m3 | 0.405 ± 0.047 mPa·s | 977.77 ± 0.06 kg/m3 | 0.89 ± 0.089 mPa·s | 0.805 ± 0.082 mPa·s | O [water]
